Measurements as given in PMC5982655, “Interaction of the New Monofunctional Anticancer Agent Phenanthriplatin With Transporters for Organic Cations” (Frontiers in Chemistry, 2018).
pIC50: −log10 of the molar value.

Key:
[1] = test system: HEK 293 hOCT2 cells; assay: MTT cell viability, HEK 293 hOCT2 cells; format: cell-based, human; details: HEK 293 hOCT2, cimetidine alone (10 or 100 μM), 10 min
Experimental: (§1) A modified 3-(4,5-dimethylthiazol-2-yl)-2,5-diphenyltetrazolium bromide (MTT) assay (Mosmann, [1983]) was used to test the chemosensitivity of cells to phenanthriplatin and, in some experiments, to cisplatin by determining the glycolysis rate via the reduction of the yellow tetrazolium salt MTT to a purple formazan dye, as previously described (Wehe et al., [2014]). Briefly, after growing for 24 h in the incubator, cells expressing or not hOCT2, hMATE1, hMATE2 or Ctr1 were treated for 10 min with platinum derivatives. Control cells were incubated with drug-free complete cell culture medium. Afterwards, the medium was carefully removed and replaced by 200 μL of fresh complete cell culture medium. After incubation for another 24 h, 10 μL of MTT solution containing 5 mg/mL of the dye were added to each well, and the cells were again incubated for 3 h. The medium was then removed and 100 μL of lysis buffer containing 10% (w/v) sodium dodecyl sulfate and 40% (v/v) dimethylformamide was added to each well. The plates were shaken for 10 min to destroy the cell structure and dissolve the blue formazan dye (Furchert et al., [2007]; Wehe et al., [2014]). Finally, the absorbance was measured at 590 nm using an automated microtiter plate reader (Infinite M200; Tecan, Männedorf, Switzerland). The percentage of viable cells in the untreated controls was compared to that for the various treatments. Experiments carried out with DAOY and UW228 cells followed a similar protocol except that these cells were incubated for 24 h with phenanthriplatin.

[2] = target: T1, hMATE1 (Homo sapiens, UniProt Q96FL8); parameters: method as in Astorga et al., [2012]; details: ref Astorga et al., [2012]; cited from earlier work
T1 construct: expressed in transfected cells
T1 sequence (Q96FL8 1-570): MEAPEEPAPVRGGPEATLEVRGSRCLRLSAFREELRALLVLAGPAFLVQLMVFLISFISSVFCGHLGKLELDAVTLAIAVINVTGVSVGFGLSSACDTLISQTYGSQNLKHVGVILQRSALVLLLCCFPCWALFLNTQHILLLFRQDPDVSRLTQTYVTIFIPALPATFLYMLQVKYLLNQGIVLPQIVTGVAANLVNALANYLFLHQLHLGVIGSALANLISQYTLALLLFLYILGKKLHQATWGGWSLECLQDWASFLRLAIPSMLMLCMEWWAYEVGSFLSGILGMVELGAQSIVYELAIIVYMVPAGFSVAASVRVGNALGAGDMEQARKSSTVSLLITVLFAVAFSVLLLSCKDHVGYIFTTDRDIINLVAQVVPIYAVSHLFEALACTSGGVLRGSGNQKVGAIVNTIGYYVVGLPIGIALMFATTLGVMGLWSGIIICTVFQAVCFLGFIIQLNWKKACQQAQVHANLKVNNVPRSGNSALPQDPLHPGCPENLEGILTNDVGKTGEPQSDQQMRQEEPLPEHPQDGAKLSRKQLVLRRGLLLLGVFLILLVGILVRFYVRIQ

[3] = target: T2, hMATE2K (Homo sapiens, UniProt Q86VL8); parameters: method as in Astorga et al., [2012]; details: ref Astorga et al., [2012]; cited from earlier work
T2 construct: expressed in transfected cells
T2 sequence (Q86VL8 1-566 isoform Q86VL8-3): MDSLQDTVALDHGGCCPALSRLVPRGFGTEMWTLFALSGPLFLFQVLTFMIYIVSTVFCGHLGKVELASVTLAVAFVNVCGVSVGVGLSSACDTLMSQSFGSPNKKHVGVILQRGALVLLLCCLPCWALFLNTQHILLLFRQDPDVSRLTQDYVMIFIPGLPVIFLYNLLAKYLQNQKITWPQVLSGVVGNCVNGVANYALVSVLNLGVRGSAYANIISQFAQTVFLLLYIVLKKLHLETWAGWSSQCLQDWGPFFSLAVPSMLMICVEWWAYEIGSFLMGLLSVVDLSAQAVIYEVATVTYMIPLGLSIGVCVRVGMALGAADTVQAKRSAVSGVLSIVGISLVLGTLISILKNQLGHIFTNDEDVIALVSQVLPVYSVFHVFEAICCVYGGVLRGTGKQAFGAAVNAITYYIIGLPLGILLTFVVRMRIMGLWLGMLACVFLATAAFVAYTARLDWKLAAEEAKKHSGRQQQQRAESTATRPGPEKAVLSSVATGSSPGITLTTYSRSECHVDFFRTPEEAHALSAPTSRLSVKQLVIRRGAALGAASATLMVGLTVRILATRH

[4] = test system: Ctr1^−/− MEFs; assay: MTT cell viability, Ctr1-/- MEFs; format: cell-based, mouse; details: 1 mM, 10 min
Experimental: as §1

[5] = target: T3, hOCT1 (Homo sapiens, UniProt O15245); assay: Inhibition of ASP+ uptake in HEK 293 cells expressing hOCT1; format: cell-based; details: HEK 293 hOCT1, 1 μM ASP+
T3 construct: expressed in transfected cells; gift of H. Koepsell
T3 sequence (O15245 1-554): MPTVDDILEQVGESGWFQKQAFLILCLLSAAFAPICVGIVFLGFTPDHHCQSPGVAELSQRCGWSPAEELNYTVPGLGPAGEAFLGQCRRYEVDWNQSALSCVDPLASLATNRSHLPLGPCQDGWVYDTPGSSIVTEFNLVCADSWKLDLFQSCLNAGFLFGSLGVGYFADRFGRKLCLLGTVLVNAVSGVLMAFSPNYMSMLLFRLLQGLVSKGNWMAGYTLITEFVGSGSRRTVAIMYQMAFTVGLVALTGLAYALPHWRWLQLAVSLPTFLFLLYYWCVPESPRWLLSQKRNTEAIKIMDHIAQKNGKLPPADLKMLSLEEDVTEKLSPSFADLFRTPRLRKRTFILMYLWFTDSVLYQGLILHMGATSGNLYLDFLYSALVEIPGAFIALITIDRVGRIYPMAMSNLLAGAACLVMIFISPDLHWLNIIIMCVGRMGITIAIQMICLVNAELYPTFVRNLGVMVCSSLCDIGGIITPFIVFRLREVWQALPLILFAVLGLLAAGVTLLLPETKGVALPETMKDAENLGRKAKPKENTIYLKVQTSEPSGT
Experimental: (§2) The interaction of phenanthriplatin with transporters for organic cations (OCT1-3, MATE1, and MATE2K) was investigated by measuring its effects on the uptake of the fluorescent organic cation 4-(4-dimethylamino)styryl-N-methylpyridinium (ASP^+). Microfluorometric measurements of ASP^+ uptake were performed with a fluorescence plate reader (Infinity 200, Tecan, Crailsheim, Germany; excitation at 465 nm, emission at 590 nm) as described previously for cultured HEK 293 cells (Wilde et al., [2009]). Before measurements, the culture medium in the wells of the 96 well microtiter plate containing HEK 293 cells was replaced by a HCO3- -free Ringer-like solution containing (in mM) NaCl 145, K2HPO4 1.6, KH2PO4 0.4, D-glucose 5, MgCl2 1, calcium gluconate 1.3, and pH adjusted to 7.4. Fluorescence was measured dynamically at 37°C in each well before and after ASP^+ addition to HCO3- -free Ringer-like solution, alone or together with increasing phenanthriplatin concentrations, and plotted versus time. ASP^+ (final concentration 1 or 10 μM for experiments with OCTs or MATEs, respectively) was added after the third sampling interval. Emission from the complete area of the well bottom was analyzed four times and averaged for each well. […] Background fluorescence was measured for each plate in wells with identical solutions containing no cells and subtracted from each well containing cells. Experiments were performed with cells from one passage of the same day with controls and test replicates in the same plate.
(§3) Data are presented as mean values ± SEM, with (n) referring to the number of wells. IC50 values defined as the concentration of platinum agent required to inhibit uptake of ASP^+ by 50% and EC50 values used to assess cell viability were obtained by sigmoidal concentration-response curve fitting using GraphPad Prism, Version 5.3 (GraphPad Software, San Diego, USA). […] For multiple comparisons, ANOVA with Bonferroni post-test was used. A P-value < 0.05 was considered statistically significant.

[6] = test system: Ctr1^+/+ MEFs; assay: MTT cell viability, Ctr1+/+ MEFs; format: cell-based, mouse; details: 1 mM, 10 min
Experimental: as §1

[7] = target: T1, hMATE1; assay: Inhibition of ASP+ uptake in HEK 293 cells expressing hMATE1; format: cell-based; details: inhibition of ASP+ uptake, HEK293 hMATE1, Supplementary Figure 1
Experimental: as §2, §3

[8] = target: T4, hOCT2 (Homo sapiens, UniProt O15244); assay: Inhibition of ASP+ uptake in HEK 293 cells expressing hOCT2; format: cell-based; details: HEK 293 hOCT2, 1 μM ASP+
T4 construct: expressed in transfected cells; gift of H. Koepsell
T4 sequence (O15244 1-555): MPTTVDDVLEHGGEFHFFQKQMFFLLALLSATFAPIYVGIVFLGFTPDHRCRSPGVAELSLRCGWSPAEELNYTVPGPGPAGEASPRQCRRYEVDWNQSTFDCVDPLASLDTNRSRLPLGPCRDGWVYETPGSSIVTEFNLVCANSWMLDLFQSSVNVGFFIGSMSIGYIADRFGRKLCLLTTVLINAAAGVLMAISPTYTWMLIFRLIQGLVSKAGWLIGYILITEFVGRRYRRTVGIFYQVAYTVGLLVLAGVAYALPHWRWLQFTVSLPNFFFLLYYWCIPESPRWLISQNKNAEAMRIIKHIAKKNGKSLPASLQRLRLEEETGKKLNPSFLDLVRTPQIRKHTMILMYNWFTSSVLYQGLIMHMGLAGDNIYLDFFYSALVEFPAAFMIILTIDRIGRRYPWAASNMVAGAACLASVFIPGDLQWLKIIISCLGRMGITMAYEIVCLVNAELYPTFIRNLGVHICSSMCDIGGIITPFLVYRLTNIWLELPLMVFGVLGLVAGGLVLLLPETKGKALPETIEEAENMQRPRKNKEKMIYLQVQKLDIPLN
Experimental: as §2, §3

CN/C(=N/CCSCc1nc[nH]c1C)NC#N [Cimetidine, cimetidine, reference compound]
Cell viability (MTT) [1]: no significant effect on cell viability

C[n+]1ccc(-c2ccccc2)cc1 [MPP^+, 1-methyl-4-phenylpyridinium]
Affinity for hMATE1 [2]: 4.7 µM
Affinity for hMATE2K [3]: 3.3 µM

N.N.[Cl][Pt][Cl] [cisplatin, reference compound]
Cell viability (MTT) [4]: no decrease in cell viability
pIC50 [5]: 4.21
Cell viability (MTT) [6]: toxic to Ctr1^+/+
Interaction (affinity) with hMATE1 [7]: very low affinity
pIC50 [8]: 4.30
